Laboratory results: patent US20190337899A1, “QUINOLINE SULFONAMIDES USEFUL TO TREAT DISEASE” (priority 2015, published 2019)

Tests used:
Ob/ob mice = assay: Effect of a SERCA agonist on the level of blood glucose; type: in vivo; settings: Mus musculus, ip, 96 h, 50 mg/kg i.p. once a day for 5 days, fasting glucose 4 days after administration vs baseline, read-out: Glucose level reduction
Experimental: Ob/ob mice (10 weeks old, n=7) were intraperitoneally (i.p.) injected with 100 μL of a solution containing 0 (vehicle) or 50 mg/kg of a test compound once a day for a total of 5 days. Fasting glucose was measured at baseline and 4 days after the administration of the test compound. Glucose levels were measured in blood samples drawn from the tail vein using a handheld glucose sensor. Compound effects on blood glucose are shown in Table 5 where A represents a 10-20% reduction in blood glucose, B represents a 21-30% reduction in blood glucose, and C represents a greater than 30% reduction in blood glucose levels.

CSM14.1 neuronal cells = assay: Cell survival assay (thapsigargin-treated CSM14.1 neuronal cells, CellTiter-Glo); type: cell-based; settings: compound 2 hrs before about 15 μM thapsigargin, overnight, CellTiter-Glo luminescence
Experimental: CSM14.1 neuronal cells were maintained in Complete Medium at 32 ° C.; wherein the Complete Medium contained Dulbecco's modified eagle medium (DMEM) with 10% fetal bovine serum (FSB), 1% L-glutamine, 100 IU/mL penicillin, and 100 μg/mL streptomycin. The cells were recovered from cultures by trypsinization and then seeded in 384 well plates (Greiner #781098) at a concentration of 1,000 cells/well in 20 μL of DMEM Assay Medium, wherein the DMEM Assay Medium contained 2% FBS, 100 IU/mL penicillin, and 100 μg/mL streptomycin. Seeding was performed using a MultiDrop Combi reagent broadcaster. The plates were incubated overnight at 32° C. A test compound was prepared by 2-fold serial dilution in 100% DMSO using a BIOMEK® 2000 liquid handler (Beckman Coulter). A dose-response curve containing 10 concentrations of the test compound was obtained. Using a BIOMEK® FX liquid handler (Beckman Coulter), 2.5 μL of the test compound was transferred from the 100% DMSO serial dilution plate to an intermediate plate containing 47.5 μL of DMEM Assay Medium containing 2% FBS, 100 IU/mL penicillin, and 100 μg/mL streptomycin and mixed. To reduce or eliminate the interference from the compound's precipitation, 6 μL of the diluted compound was immediately transferred to the assay plate to achieve a high compound concentration of 100 μM in 99% DMEM Assay Medium and 1% DMSO. After the assay plates were incubated for 2 hrs, 4 μL of 112.5 μM thapsigargin (TG) (DMSO stock diluted into Assay TC Medium) was dispensed into each testing well with a MultiDrop Combi reagent broadcaster for a final concentration of about 15 μM TG. The tissue culture media (4 μL) containing vehicle only was transferred manually to each control cell using a 16 channel electronic pipette. After the plates were incubated overnight (about 16 to 24 hrs), CELLTITER-GLO® (Promega) (16 μL) was added to all wells and luminescence was measured. High luminescence indicates cell survival. The biological results are summarized in Table 1 where A represents a cell viability EC50 less than 10 μM and B represents a value greater than or equal to 10 μM and less than 20 μM.

SH-SY5Y cells = assay: Cell rescue assay: protection against β-amyloid-induced cell toxicity; type: cell-based; settings: Homo sapiens, 96 h, 7.5 uM compound, AB1-42 at 10 uM, 4 days, OD 490 nm, read-out: Cell Survival % (cell rescue)
Experimental: Protection against β-amyloid-induced cell toxicity. Chonpathompikunlert et al. Eu. J. Pharmacol. 2011, 650, 544-549. Human SH-SY5Y cells are suspended in media containing 2% FBS and 2X Gentamicin. Transfer 100 ul/well culture to 96-well plate (20,000 cells/well; passage #5) and incubate overnight. Prepare compound samples at 30 uM. Add 50 ul of the samples to the cells [[…]] and incubate 3 hours. Make stock of 40 uM AB1-42 peptide in assay media. Transfer 50 ul/well to cells/compounds in assay plate. The final assay volume is 200 ul/well, containing 2% FBS, 2× Gentamicin, 7.5 uM compound and AB1-42 at 10 uM. Incubate for 4 days then add 20 µl of Promega Substrate Cell Titer 96 Aqueous One Solution Reagent to each well. Incubate 37° C. and read OD at 490 nm. The results are summarized in Table 3, where A represents a value greater than 50% cell rescue, B represents a value greater than 10% and less than or equal to 50% cell rescue, and C represents a value greater than 1% and less than or equal to 10% cell rescue.

SERCA = molecular target: T1, SERCA (Homo sapiens, UniProt P16615); assay: Ca-ATPase assay (NADH-linked, enzyme-coupled ATPase assay); type: biochemical; settings: microsomal preparations from HEK 293 cells, Vmax from Hill fit of ATPase calcium-dependence
T1 construct: microsomal preparations from HEK 293 cells; endogenous in cells; host or cells: HEK 293 cells (microsomal preparation)
Experimental: A Ca-ATPase assay was performed using microsomal preparations from HEK 293 cells at a series of calcium concentrations corresponding to the physiological range, relative to controls. The ATP hydrolysis rate was measured over a range of calcium concentrations in the presence of test compounds using an NADH-linked, enzyme-coupled ATPase assay adapted for 96-well microplates, with Vmax determined by fitting the ATPase calcium-dependence to the Hill function. Each well contained 2 μg or 7 μg of SR vesicles (optimized for skeletal or cardiac SR, respectively), 50 mM MOPS (pH 7.0), 100 mM KCl, 5 mM MgCl2, 1 mM EGTA, 0.2 mM NADH, 1 mM phosphoenol pyruvate, 5 IU pyruvate kinase, 5 IU lactate dehydrogenase, and 3.5 μg/mL A23187 (a calcium ionophore). CaCl2 was added to set free [Ca^2+] to the specific values. The assay was started upon addition of ATP at a final concentration of 5 mM, and read in a SpectraMax Plus microplate spectrophotometer. The results are summarized in Table 4, where A represents an increase in SERCA Vmax greater than 50% and B represents a value greater than 10% and less than or equal to 50%.

HEK293 cells; N2a cells = assay: Cell rescue assay: protection against thapsigargin (TG)-induced cell-death (AlamarBlue); type: cell-based, Human (HEK293); Mouse (N2a); settings: Homo sapiens; compound at 20 μM, 2 hrs before thapsigargin (15 μM HEK293, 1 μM N2a), 24 hrs, viability as % RFU of control; read-out: Cell Survival %
Experimental: Protection against Thapsigargin (TG)-induced Cell-death. Human embryonic kidney (HEK293) cells were grown in Dulbecco's Modified Eagle's Medium (DMEM) with 10% FBS and 1% antibiotic antimycotic solution (ABAM). Mouse neuroblastoma (N2a) cells were grown in 1:1 DMIEM:OPTI-MIEM® with 5% FBS and 1% ABAM. All cells were grown in 10% CO2 in a humidified environment of the incubator. Cells grown in 96-well plates were exposed to a test compound (20 μM) for 2 hrs before addition of thapsigargin (15 μM for HEK293 cells and 1 μM for N2a cells) to induce ER stress. After incubation in cell-culture incubator for 24 hrs, ALAMARBLUE® regent (10% v/v) was added to the wells. Fluorescence reading was taken 2 hrs after the addition of the ALAMARBLUE® regent. Cell-viability was calculated as a percentage of relative fluorescence unit (RFU) compared to control. […] The biological results are summarized in Table 2, where each compound was tested at 20 μM and where A represents a viability greater than 50%, B represents a viability greather than 10% and less than or equal to 50%, C represents a value equal to or below 10% and greater than 1%.

T1 sequence (P16615 whole entry): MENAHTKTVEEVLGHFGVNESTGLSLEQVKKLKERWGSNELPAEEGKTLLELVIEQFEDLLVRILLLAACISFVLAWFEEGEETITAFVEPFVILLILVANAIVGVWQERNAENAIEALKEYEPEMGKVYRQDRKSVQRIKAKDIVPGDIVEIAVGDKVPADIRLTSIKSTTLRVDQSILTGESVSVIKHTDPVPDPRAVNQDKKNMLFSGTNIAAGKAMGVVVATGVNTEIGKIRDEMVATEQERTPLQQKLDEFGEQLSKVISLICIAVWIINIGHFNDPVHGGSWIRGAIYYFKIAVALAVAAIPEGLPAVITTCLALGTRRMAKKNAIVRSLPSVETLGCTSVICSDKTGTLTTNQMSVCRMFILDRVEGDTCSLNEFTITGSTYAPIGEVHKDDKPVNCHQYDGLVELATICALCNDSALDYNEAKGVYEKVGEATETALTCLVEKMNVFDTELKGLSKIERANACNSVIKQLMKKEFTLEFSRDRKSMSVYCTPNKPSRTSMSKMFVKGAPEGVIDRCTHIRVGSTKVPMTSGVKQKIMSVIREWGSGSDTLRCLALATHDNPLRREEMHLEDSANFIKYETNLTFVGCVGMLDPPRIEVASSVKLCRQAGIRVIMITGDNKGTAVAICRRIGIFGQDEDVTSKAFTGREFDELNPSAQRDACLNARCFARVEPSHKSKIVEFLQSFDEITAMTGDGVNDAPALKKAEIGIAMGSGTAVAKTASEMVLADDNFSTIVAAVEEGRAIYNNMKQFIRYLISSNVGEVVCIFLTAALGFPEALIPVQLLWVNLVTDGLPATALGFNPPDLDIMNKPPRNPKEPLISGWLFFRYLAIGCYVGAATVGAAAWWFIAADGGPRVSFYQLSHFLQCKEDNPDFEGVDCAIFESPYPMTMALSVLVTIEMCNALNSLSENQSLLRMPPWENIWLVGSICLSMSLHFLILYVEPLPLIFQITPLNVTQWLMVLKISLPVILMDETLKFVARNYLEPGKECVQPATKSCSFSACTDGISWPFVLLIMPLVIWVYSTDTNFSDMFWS

Structure (SMILES)	inhibition in vivo at 50 mg/kg (Ob/ob mice) [%]	EC50 (CSM14.1 neuronal cells) [µM]	viability at 7.5 µM (SH-SY5Y cells) [%]	SERCA Vmax Increase (SERCA)	viability at 20 µM (HEK293 cells; N2a cells) [%]
Cc1ccc2cccc(NS(=O)(=O)c3cc(Br)cs3)c2n1 [D8, 4-Bromo-N-(2-methylquinolin-8-yl)thiophene-2-sulfonamide]	> 30	10 to 20	10 to 50	B (B represents a value greater than 10% and less than or equal to 50%)	> 50
Cc1ccc2cccc(NS(=O)(=O)c3ccc(C(C)(C)C)cc3)c2n1 [D10, 4-(tent-Butyl)-N-(2-methylquinolin-8-yl)benzenesulfonamide]	21 to 30	10 to 20	10 to 50	A (A represents an increase in SERCA Vmax greater than 50%)	10 to 50
Cc1ccc2cccc(NS(=O)(=O)c3ccc(OC(C)C)cc3)c2n1 [D1, 4-Isopropoxy-N-(2-methylquinolin-8-yl)benzenesulfonamide]	> 30	< 10	> 50	B (B represents a value greater than 10% and less than or equal to 50%)	> 50
Cc1ccc2cccc(NS(=O)(=O)c3ccc(N(C)C)cc3)c2n1 [D7, 4-Dimethylamino-N-(2-methylquinolin-8-yl)benzenesulfonamide]	21 to 30	10 to 20	1 to 10	B (B represents a value greater than 10% and less than or equal to 50%)	10 to 50
Cc1ccc2cccc(NS(=O)(=O)c3ccc(C)o3)c2n1 [D9, 5-Methyl-N-(2-methylquinolin-8-yl)furan-2-sulfonamide]	10 to 20	10 to 20	10 to 50	B (B represents a value greater than 10% and less than or equal to 50%)	10 to 50
CCOc1ccc(S(=O)(=O)Nc2cccc3ccc(C)nc23)cc1 [D2, 4-Ethoxy-N-(2-methylquinolin-8-yl)benzenesulfonamide]	> 30	< 10	> 50	A (A represents an increase in SERCA Vmax greater than 50%)	10 to 50
Cc1ccc2cccc(NS(=O)(=O)c3ccc(C(F)(F)F)cc3)c2n1 [D5, 4-Trifluoromethyl-N-(2-methylquinolin-8-yl)benzenesulfonamide]	21 to 30	< 10	10 to 50	A (A represents an increase in SERCA Vmax greater than 50%)	> 50
Cc1ccc2cccc(NS(=O)(=O)c3cc4ccccc4s3)c2n1 [D4, N-(2-Methylquinolin-8-yl)benzo[b]thiophene-2-sulfonamide]	> 30	10 to 20	10 to 50	B (B represents a value greater than 10% and less than or equal to 50%)	> 50
Cc1ccc2cccc(NS(=O)(=O)c3ccc(C#N)cc3)c2n1 [D6, 4-Cyano-N-(2-methylquinolin-8-yl)benzenesulfonamide]	21 to 30	10 to 20	1 to 10	A (A represents an increase in SERCA Vmax greater than 50%)	10 to 50
COc1c(C)cccc1S(=O)(=O)Nc1cccc2ccc(C)nc12 [D3, 2-Methoxy-3-methyl-N-(2-methylquinolin-8-yl)benzenesulfonamide]	10 to 20	10 to 20	10 to 50	A (A represents an increase in SERCA Vmax greater than 50%)	10 to 50
